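A five-concentration, 48-hour dose response in 96-well plates underlies each endpoint, interpolated linearly between surrounding concentrations. The concentration for 50% growth inhibition is given as GI50.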 The source made the active and inactive calls. No stated cut-off is given here; in the data, active = GI50 up to about 1.1 µM and inactive = higher.
Experiments:
Test in all cases: DTP human tumour cell line panel, 48 h
Malme-3M = test system: Malme-3M
HT-29 = test system: HT-29
ACHN = test system: ACHN
OVCAR-8 = test system: OVCAR-8
K562 = test system: K562
EKVX = test system: EKVX
HOP-92 = test system: HOP-92
SK-MEL-28 = test system: SK-MEL-28
SF-539 = test system: SF-539
TK-10 = test system: TK-10
UO-31 = test system: UO-31
COLO 205 = test system: COLO 205
HCT-116 = test system: HCT-116
M14 = test system: M14
NCI-H23 = test system: NCI-H23
MOLT-4 = test system: MOLT-4
NCI/ADR-RES = test system: NCI/ADR-RES
SK-MEL-5 = test system: SK-MEL-5
HCT-15 = test system: HCT-15

Compound | GI50 (Malme-3M) | GI50 (HT-29) | GI50 (ACHN) | GI50 (OVCAR-8) | GI50 (K562) | GI50 (EKVX) | GI50 (HOP-92) | GI50 (SK-MEL-28) | GI50 (SF-539) | GI50 (TK-10) | GI50 (UO-31) | GI50 (COLO 205) | GI50 (HCT-116) | GI50 (M14) | GI50 (NCI-H23) | GI50 (MOLT-4) | GI50 (NCI/ADR-RES) | GI50 (SK-MEL-5) | GI50 (HCT-15)
Cn1cc(NC(=O)[C@H]2CCC(N)=N2)cc1C(=O)NCCC(=N)N | > 100 µM (inactive) | > 100 µM (inactive) | > 100 µM (inactive) | > 100 µM (inactive) | > 100 µM (inactive) | > 100 µM (inactive) | > 100 µM (inactive) | > 100 µM (inactive) | > 100 µM (inactive) | > 100 µM (inactive) | > 100 µM (inactive) | > 100 µM (inactive) | > 100 µM (inactive) | > 100 µM (inactive) | > 100 µM (inactive) | > 100 µM (inactive) |  |  | 
COC(=O)C(C/C=C(\C)c1ccc(Cl)cc1)C(C)=O (centres undefined) | 40.3 µM (inactive) | 32.3 µM (inactive) |  | 52 µM (inactive) | 36.4 µM (inactive) | 54.5 µM (inactive) | 19.5 µM (inactive) | 61.5 µM (inactive) | 99.5 µM (inactive) |  | 22.9 µM (inactive) | 59.8 µM (inactive) | 41.7 µM (inactive) |  | 35.5 µM (inactive) | 17.9 µM (inactive) | 23.7 µM (inactive) | 21.3 µM (inactive) | 37.5 µM
N=c1c2ccccc2nc2oc3ccc(Cl)cc3n12 | 10.8 µM (inactive) | 20.3 µM (inactive) | 11.5 µM (inactive) | 9.66 µM (inactive) | 9.2 µM (inactive) | 15.6 µM (inactive) |  | 25.2 µM (inactive) | 15.5 µM (inactive) | 20 µM (inactive) | 16.4 µM (inactive) | 29.4 µM (inactive) | 10.6 µM (inactive) | 9.4 µM (inactive) | 14.1 µM (inactive) | 35.3 µM (inactive) | 48.3 µM (inactive) | 37.8 µM (inactive) | 48 µM
Cc1cccc(C(C)C)c1NC(=O)/C(Cc1c([N+](=O)[O-])cccc1[N+](=O)[O-])=N/NC(=O)CC#N | > 100 µM (inactive) | > 100 µM (inactive) | > 100 µM (inactive) |  | > 100 µM (inactive) | 7.05 µM (inactive) | 41.6 µM (inactive) | > 100 µM (inactive) | > 100 µM (inactive) | 80.9 µM (inactive) | > 100 µM (inactive) | > 100 µM (inactive) | > 100 µM (inactive) | > 100 µM (inactive) |  | > 100 µM (inactive) |  | > 100 µM (inactive) | > 100 µM
CCO[C@]12C[C@H](OC)[C@@]3(O)CC(C1[C@H]3O)C13C4C2[C@H](OC)C1[C@](COC)(CN4CC)[C@H](O)C[C@@H]3OC (some centres undefined) |  | > 100 µM (inactive) | 66.2 µM (inactive) | > 100 µM (inactive) | > 100 µM (inactive) | > 100 µM (inactive) |  | > 100 µM (inactive) | > 100 µM (inactive) | > 100 µM (inactive) | > 100 µM (inactive) | > 100 µM (inactive) | > 100 µM (inactive) | > 100 µM (inactive) | > 100 µM (inactive) | > 100 µM (inactive) |  | > 100 µM (inactive) | > 100 µM
C[C@H](O)C(=O)SC[C@H](NC(=O)CC[C@@H](N)C(=O)O)C(=O)NCC(=O)O | > 100 µM (inactive) | > 100 µM (inactive) | > 100 µM (inactive) | > 100 µM (inactive) | > 100 µM (inactive) | > 100 µM (inactive) | > 100 µM (inactive) | > 100 µM (inactive) |  | > 100 µM (inactive) | > 100 µM (inactive) | > 100 µM (inactive) | > 100 µM (inactive) | > 100 µM (inactive) | > 100 µM (inactive) | > 100 µM (inactive) |  | > 100 µM (inactive) | > 100 µM
c1ccc2c(c1)CCCC/C2=N/OCC1CO1 (centres undefined) | 67.6 µM (inactive) | 42.1 µM (inactive) | 99.1 µM (inactive) | 45.7 µM (inactive) | 41.2 µM (inactive) | 56.9 µM (inactive) | 22.3 µM (inactive) | 61 µM (inactive) | > 100 µM (inactive) | > 100 µM (inactive) | < 0.01 µM (active) | 48.8 µM (inactive) | 45 µM (inactive) |  | 41.8 µM (inactive) | 32.1 µM (inactive) |  | 35.5 µM (inactive) | > 100 µM
CCCCCCCSc1nc2c(C(=O)OCC)ncn2c2ccccc12 | > 100 µM (inactive) | > 100 µM (inactive) | > 100 µM (inactive) | > 100 µM (inactive) | > 100 µM (inactive) | > 100 µM (inactive) | 25.1 µM (inactive) | > 100 µM (inactive) |  | > 100 µM (inactive) | > 100 µM (inactive) | > 100 µM (inactive) | > 100 µM (inactive) | > 100 µM (inactive) | > 100 µM (inactive) | > 100 µM (inactive) |  |  | > 100 µM
CN(C)CCC(O)(c1ccccc1)C(O)(CCN(C)C)c1ccccc1 (centres undefined) | 17.7 µM (inactive) | 94 µM (inactive) | > 100 µM (inactive) | > 100 µM (inactive) | 48.9 µM (inactive) | > 100 µM (inactive) |  | > 100 µM (inactive) |  | > 100 µM (inactive) | > 100 µM (inactive) | 72.9 µM (inactive) |  | 17.4 µM (inactive) | > 100 µM (inactive) | > 100 µM (inactive) |  | 38.5 µM (inactive) | > 100 µM
N#C/C(=C1/Sc2c(nc[nH]c2=O)N1c1ccccc1)c1nc2ccccc2[nH]1 | > 100 µM (inactive) | > 100 µM (inactive) | > 100 µM (inactive) | > 100 µM (inactive) | > 100 µM (inactive) | > 100 µM (inactive) | > 100 µM (inactive) | > 100 µM (inactive) | > 100 µM (inactive) | > 100 µM (inactive) | > 100 µM (inactive) | > 100 µM (inactive) | > 100 µM (inactive) | > 100 µM (inactive) | > 100 µM (inactive) | > 100 µM (inactive) |  | > 100 µM (inactive) | > 100 µM
C=C1[C@@H]2CCC(C)(C)[C@H]1CCC(=O)[C@@H]2C(=O)OC | > 100 µM (inactive) | > 100 µM (inactive) | > 100 µM (inactive) | > 100 µM (inactive) | > 100 µM (inactive) | > 100 µM (inactive) |  | > 100 µM (inactive) | > 100 µM (inactive) | > 100 µM (inactive) | > 100 µM (inactive) | > 100 µM (inactive) | > 100 µM (inactive) | > 100 µM (inactive) | > 100 µM (inactive) | > 100 µM (inactive) |  | > 100 µM (inactive) | > 100 µM
O=C(O)C1=CNC(C(=O)O)=NN1 | > 100 µM (inactive) | > 100 µM (inactive) | > 100 µM (inactive) | > 100 µM (inactive) | > 100 µM (inactive) | > 100 µM (inactive) | > 100 µM (inactive) | > 100 µM (inactive) | > 100 µM (inactive) | > 100 µM (inactive) | > 100 µM (inactive) | > 100 µM (inactive) | > 100 µM (inactive) | > 100 µM (inactive) | > 100 µM (inactive) | > 100 µM (inactive) |  | > 100 µM (inactive) | > 100 µM
O=C(c1nc2ccc(Cl)cc2nc1O)C(O)c1ccccc1 (centres undefined) | > 100 µM (inactive) | > 100 µM (inactive) | 39 µM (inactive) | > 100 µM (inactive) | 21.8 µM (inactive) | 22 µM (inactive) | 18.2 µM (inactive) | 68.7 µM (inactive) | 57.7 µM (inactive) | > 100 µM (inactive) | > 100 µM (inactive) | > 100 µM (inactive) | > 100 µM (inactive) | > 100 µM (inactive) | 92.9 µM (inactive) | 13.2 µM (inactive) |  | > 100 µM (inactive) | 98.6 µM
C/C(=N\NS(=O)(=O)c1ccc(C)cc1)c1cc2ccccc2n1C | > 100 µM (inactive) | 76 µM (inactive) | > 100 µM (inactive) | > 100 µM (inactive) | > 100 µM (inactive) | 74.3 µM (inactive) |  |  | > 100 µM (inactive) |  | > 100 µM (inactive) | > 100 µM (inactive) | > 100 µM (inactive) | > 100 µM (inactive) | > 100 µM (inactive) | > 100 µM (inactive) |  | > 100 µM (inactive) | > 100 µM
CC(C)=CC1(C)/C(=N\O)C(C)(CC(C)C)C(=O)N1O (centres undefined) | > 100 µM (inactive) | > 100 µM (inactive) | > 100 µM (inactive) | > 100 µM (inactive) | > 100 µM (inactive) | > 100 µM (inactive) | > 100 µM (inactive) | > 100 µM (inactive) | > 100 µM (inactive) | > 100 µM (inactive) | > 100 µM (inactive) | > 100 µM (inactive) | > 100 µM (inactive) | > 100 µM (inactive) | > 100 µM (inactive) | > 100 µM (inactive) |  | > 100 µM (inactive) | > 100 µM
COC(=O)C(=O)Cc1nc2ccccc2o1 | > 100 µM (inactive) | > 100 µM (inactive) | > 100 µM (inactive) |  | > 100 µM (inactive) | > 100 µM (inactive) |  | > 100 µM (inactive) | > 100 µM (inactive) | > 100 µM (inactive) | > 100 µM (inactive) |  | > 100 µM (inactive) | > 100 µM (inactive) | > 100 µM (inactive) | > 100 µM (inactive) |  |  | > 100 µM
C=CC(C)C1(CCCOCc2ccccc2)C(=S)N2CCC3(CC24CCCC14)OCCO3 (centres undefined) | 47.5 µM (inactive) | 21.9 µM (inactive) | 9.84 µM (inactive) | 23.3 µM (inactive) | 4.84 µM (inactive) | > 100 µM (inactive) |  | 14.3 µM (inactive) |  | 97.3 µM (inactive) | 28.8 µM (inactive) | 28.5 µM (inactive) |  |  | 6.1 µM (inactive) | 3.93 µM (inactive) |  | 5.61 µM (inactive) | > 100 µM
